Like-named read-outs stand apart in the source and are kept apart here.
Columns and labels:
[1] = system: Antioxidant response element; assay: MitoOxTox: oxidative stress response in AREc32; conditions: for EC10, linear / logEC10: Bioassay ARE, dosing range all; for EC10, linear: linear model fit; for logEC10: log-logistic model fit
Description: (§1) All bioassay media components and the ERα-UAS-bla GripTite and PPARγ-UAS-bla cells were obtained from Thermo Fisher Scientific (Waltham, MA, USA). AREc32 reporter gene cells based on MCF7 were provided by C. Roland Wolf (Cancer Research UK); AhR CALUX cells (H4L7.5c2 derived from H4IIe) were provided by Michael Denison (UC Davis, USA); and SH-SY5Y cells were purchased from Sigma-Aldrich.
(§2) Cell culture conditions and bioassay protocols including response detection are provided in Text S2.1–2.4 and Table S3. − Cell viability was determined from cell confluency using an IncuCyte S3 Live-Cell Analysis System (Sartorius AG, Essen, Germany) before and after exposure, except for SH-SY5Y cells (live–dead staining with Nuclear Green LcS1 and propidium iodide, Abcam, UK). For metabolic activation experiments, cell viability was assessed using the ToxBLAzer DualScreen Kit (Thermo Fisher Scientific) to capture the remaining toxicity in ERα-UAS-bla GripTite after treatment with the aCYP catalyst (details in Text S2.4).
(§3) For ARE, the concentration that triggered an induction ratio of 1.5 (ECIR1.5) was used as the benchmark value, as detailed in Text S2.5. IC10 values also served as a threshold for data analysis in all assays; only concentrations below IC10 were considered when deriving EC10 or ECIR1.5. […]
(§4) S2: Cell culture and bioassays
(§5) S2.1: Cell Culturing Conditions
(§6) All suppliers and sources are given in detail in SI-Excel S3. The bioassay media for the different assays were prepared as follows: Assay medium for ER alpha-UAS-bla GripTite (ERα) and PPAR gamma-UAS-bla 293H (PPARγ) was prepared with 98% Opti-MEM, supplemented with 2% charcoal-stripped FBS, and 100 U/mL penicillin-streptomycin. MitoOxTox and AhR assay medium was comprised of 90% DMEM with GlutaMAX, supplemented with 10% FBS, and 100 U/mL penicillin-streptomycin. Neurotoxicity assay medium consisted of the neurobasal […]
(§7) (1 picture or pasted object on this page, not shown here) […]
(§8) medium, supplemented with 2% B-27 Supplement and 2 mM GlutaMAX Supplement. SH - SY5Y cells were differentiated with 10 µM all-trans retinoic acid prior to the assay.
(§9) S2.2: Cell Seeding and Incubation. For all bioassays, cell suspensions in the respective assay medium were dispensed into each well of 384-well plates using a MultiFlo Dispenser (Biotek, (now Agilent), Winooski, VT, U.S.). After seeding, the plates were incubated at 37° C and 5% CO₂ for […]. The final cell densities and plate types were as follows: Black poly-D-lysine coated 384-well plates (Product No. 354663, Corning Inc., NYC, U.S.) were used for PPARγ:
(§10) 6500 cells/well, ERα: 5000 cells/well. White 384-well plates with a clear bottom (Product No.
(§11) 781098, Greiner, Kremsmünster, Austria) were utilized for the MitoOxTox assay: 2650

MCF7 (ARE/MMP) = system: MCF7 (ARE/MMP)
Experimental: as §2
(§12) For ARE, the concentration that triggered an induction ratio of 1.5 (ECIR1.5) was used as the benchmark value, as detailed in Text S2.5. IC10 values also served as a threshold for data analysis in all assays; only concentrations below IC10 were considered when deriving EC10 or ECIR1.5.
(§13) We measured the cytotoxicity of BPA and its alternatives in HEK293H (PPARγ), HEK293T (ERα), H4IIe (AhR CALUX), MCF7 (ARE/MMP), and differentiated SH-SY5Y cells (Table S6). […]
as §9, with “coated 384-well plates (Product No. 354663, Corning Inc., NYC, U.S.) were used for PPARγ:” left out
as §10
(§14) NYC, U.S.) for AhR: 3250 cells/well. Black Collagen I coated plates were used (Product No.
(§15) S2.3: Chemical Dosing and Assay Analysis Procedures. The dosing procedure and high-throughput assay workflow have been described in detail before. 9 The dosing concentrations […]
(§16) Stock solutions were then either added directly to the respective cell culture medium or evaporated under nitrogen, followed by replenishment with fresh medium. The final solvent content in each well was kept below 1% for methanol, 0% for acetonitrile.
(§17) Dosing plates were prepared as 11 -step serial dilutions using a Hamilton Microlab Star robotic system (Hamilton, Bonaduz, Switzerland), and chemicals were dosed in duplicates by transferring 10 μL twice from the dosing plates to the cell plates . After quantifying cell confluency as described in S2. 4., the exposed cells were incubated at 37° C and 5% CO₂ for an additional 24 h. All chemicals were tested in all assays with at least three independent […]
(§18) S2.4: Cell Viability Measurement s and bioanalytical protocols . The confluency as a measure of cell viability was determined with an IncuCyte S3 Live -Cell Analysis System (Sartorius AG, Essen, Germany). With this method the confluency of cells in a microscopy image are normalized to control wells without cells and compared before and after 24 hours of exposure.
(§19) This method has been described previously 13. […]

H4IIe (AhR CALUX) = system: H4IIe (AhR CALUX)
Experimental: as §2, §12, §13
as §9, with “coated 384-well plates (Product No. 354663, Corning Inc., NYC, U.S.) were used for PPARγ:” left out
as §10, §14, §15, §16, §17, §18, §19

HEK293T (ERα) = system: HEK293T (ERα)
Experimental: as §2, §12, §13
as §9, with “coated 384-well plates (Product No. 354663, Corning Inc., NYC, U.S.) were used for PPARγ:” left out
as §10, §14, §15, §16, §17, §18, §19

HEK293H (PPARγ) = conditions: for IC10, linear: linear model
Experimental: as §2, §12, §13
as §9, with “coated 384-well plates (Product No. 354663, Corning Inc., NYC, U.S.) were used for PPARγ:” left out
as §10, §14, §15, §16, §17, §18, §19

SH-SY5Y cells = assay: cells; conditions: for EC10: Homo sapiens, SH-SY5Y; for EC10, linear: linear model
Description: as §1, §2, §3, §4, §5, §6, §7, §8, §9, §10, §11

[2] = Bioassay ARE, cytotoxicity, dosing range all, linear model fit
[3] = Bioassay ARE, cytotoxicity, dosing range all, log-logistic model fit
[4] = MMP bioassay cytotoxicity, dosing range all, linear model
[5] = MMP bioassay cytotoxicity, dosing range all, log-logistic model
[6] = Bioassay AhR, cytotoxicity, dosing range all
[7] = Bioassay AhR, cytotoxicity, dosing range all, linear model fit
[8] = Bioassay AhR, cytotoxicity, dosing range all, log-logistic model fit
[9] = PPARγ bioassay cytotoxicity, dosing range all
[10] = PPARγ bioassay cytotoxicity, dosing range all, log-logistic model
[11] = read-out: EC10, linear transformed

| Structure (SMILES) | EC10, linear [1] | logEC10 [1] | IC10, linear (MCF7 (ARE/MMP); [2]) | logIC10 (MCF7 (ARE/MMP); [3]) | IC10, linear (MCF7 (ARE/MMP); [4]) | logIC10 (MCF7 (ARE/MMP); [5]) | IC10, linear transformed (H4IIe (AhR CALUX); [6]) | IC10, linear (H4IIe (AhR CALUX); [7]) | logIC10 (H4IIe (AhR CALUX); [8]) | IC10, linear transformed (HEK293H (PPARγ); [9]) | IC10, linear (HEK293H (PPARγ); [9]) | logIC10 (HEK293H (PPARγ); [10]) | EC10 (SH-SY5Y cells; [11]) [µM] | EC10 (SH-SY5Y cells; read-out: logEC10) [µM] | EC10, linear (SH-SY5Y cells; NOI bioassay, dosing range all) | further results |
| --- | --- | --- | --- | --- | --- | --- | --- | --- | --- | --- | --- | --- | --- | --- | --- | --- |
| CC1(C)[C@H](O)C(C)(C)[C@H]1O [Trans TMCD] | no effect | no effect | no cytotoxicity | no cytotoxicity | no cytotoxicity | no cytotoxicity | 1.03E-02 | 8.94E-03 | -1.99 | 1.52E-03 | no cytotoxicity | no cytotoxicity | 4150 | 4170 | – | IC10, linear transformed (HEK293T (ERα); ERα bioassay cytotoxicity, dosing range all): 5.38E-03; IC10, linear (HEK293T (ERα); ERα bioassay cytotoxicity, dosing range all, linear model): no cytotoxicity; logIC10 (HEK293T (ERα); ERα bioassay cytotoxicity, dosing range all, log-logistic model): no cytotoxicity; EC10 (SH-SY5Y cells; read-out: EC10, linear): 5310 µM |
| CC(C)CC(C)(c1ccc(O)cc1)c1ccc(O)cc1 [BP-MIBK, 4,4'-(1,3-Dimethylbutylidene)diphenol] | no effect | no effect | – | – | – | – | – | – | – | – | – | – | 50.5 | – | no effect | IC10, linear (MCF7 (ARE/MMP)): no cytotoxicity; IC10, linear (H4IIe (AhR CALUX)): no cytotoxicity; logIC10 (H4IIe (AhR CALUX); rat, 24 h): -4.05; IC10, linear (HEK293T (ERα)): no cytotoxicity; logIC10 (HEK293T (ERα)): no cytotoxicity; logIC10 (HEK293T (ERα); human, 24 h): -5.04; logIC10 (HEK293H (PPARγ); human, 24 h): -5.09; logEC10 (SH-SY5Y cells; NOI bioassay, dosing range all, log-logistic model): no effect |
| COC(=O)C(c1ccc(O)cc1)c1ccc(O)cc1 [Bz, Methyl bis(4-hydroxyphenyl)acetate] | no effect | no effect | 3.89E-04 | -3.30 | 3.44E-04 | -3.46 | 1.41E-04 | 1.09E-04 | -3.85 | 1.09E-04 | 3.71E-04 | -3.55 | 400 | 380 | no effect | EC10 ([1]; Arec32, read-out: EC10, linear transformed): 2200 µM; IC10, linear transformed (MCF7 (ARE/MMP); Bioassay ARE, cytotoxicity, dosing range all): 4.96E-04; IC10, linear transformed (MCF7 (ARE/MMP); MMP bioassay cytotoxicity, dosing range all): 3.45E-04; Toxic ratio (TR) TRARE (MCF7 (ARE/MMP); against baseline cytotoxicity, ARE readout): 0.70; IC10, MCF7, ARE (MCF7 (ARE/MMP); cytotoxicity, MCF7, ARE readout): 496 µM; Toxic ratio (TR) TRAhR (H4IIe (AhR CALUX); against baseline cytotoxicity): 3.18; IC10, H4IIe, AhR (H4IIe (AhR CALUX); cytotoxicity, H4IIe (AhR assay cells)): 109 µM; IC10, linear transformed (HEK293T (ERα); Bioassay ERα, cytotoxicity, dosing range high): 1.18E-04; IC10, linear (HEK293T (ERα); Bioassay ERα, cytotoxicity, dosing range high, linear model fit): 1.01E-03; logIC10 (HEK293T (ERα); Bioassay ERα, cytotoxicity, dosing range high, log-logistic model fit): -3.63; IC10, linear (HEK293T (ERα); Bioassay ERα, cytotoxicity, dosing range low, linear model fit): no cytotoxicity; logIC10 (HEK293T (ERα); Bioassay ERα, cytotoxicity, dosing range low, log-logistic model fit): no cytotoxicity; Toxic ratio (TR) TRERα (HEK293T (ERα); against baseline cytotoxicity): 0.26; IC10, HEK293, ERα (HEK293T (ERα); cytotoxicity, HEK293 (ERα assay cells)): 1010 µM; Toxic ratio (TR) TRPPARγ (HEK293H (PPARγ); against baseline cytotoxicity): 0.92; IC10, HEK293, PPARγ (HEK293H (PPARγ); cytotoxicity, HEK293 (PPARγ assay cells)): 282 µM |

— publication PMC12392461, “Beyond Estrogenicity: A Comparative Assessment of Bisphenol A and Its Alternatives in In Vitro Assays Questions Safety of Replacements” (Environmental Science & Technology, 2025)
